Laboratory results reported in US11306078B2, “Piperidine CXCR7 receptor modulators” (IDORSIA PHARMACEUTICALS LTD., priority 2016, dated 2022).

Biological target: human chemokine receptor CXCR7 (Homo sapiens (Human), UniProt P25106)
Test: Tango CXCR7-bla U2OS beta-arrestin recruitment assay (beta-lactamase reporter, FRET), antagonism of CXCL12/SDF1-α;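 also: compounds preincubated 15 min before CXCL12 addition, then 22 h at 37 °C, FRET emission ratio read with CCF4-AM substrate after 2 h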
Format: cell-based
Conditions: antagonistic effect on CXCR7; Tango CXCR7-bla U2OS cells, CXCL12/SDF1-α at its EC80

human chemokine receptor CXCR7, sequence (P25106 whole entry): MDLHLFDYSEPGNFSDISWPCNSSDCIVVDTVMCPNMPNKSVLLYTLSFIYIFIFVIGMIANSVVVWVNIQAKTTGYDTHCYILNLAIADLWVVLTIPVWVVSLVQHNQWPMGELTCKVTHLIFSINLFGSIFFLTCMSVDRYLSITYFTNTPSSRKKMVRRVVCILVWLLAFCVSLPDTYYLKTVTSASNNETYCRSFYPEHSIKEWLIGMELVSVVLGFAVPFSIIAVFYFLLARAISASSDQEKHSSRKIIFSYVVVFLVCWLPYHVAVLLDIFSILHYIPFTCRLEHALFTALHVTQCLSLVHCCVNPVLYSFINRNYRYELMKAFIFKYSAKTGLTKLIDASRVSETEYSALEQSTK

Substance	IC50
(3R*,4R*)-1-Cyclohexyl-4-{[3-(2,4-difluoro-phenyl)-isoxazole-5-carbonyl]-amino}-piperidine-3-carboxylic acid ((1S*,2R)-2-phenyl-cyclopropyl)-amide and (3R*,4R*)-1-Cyclohexyl-4-{[3-(2,4-difluoro-phenyl)-isoxazole-5-carbonyl]-amino}-piperidine-3-carboxylic acid ((1R*,2S*)-2-phenyl-cyclopropyl)-amide [Example 1.147]	443 nM
(3R*,4R*)-1-Cyclopentyl-4-{[1-(2,4-difluoro-phenyl)-1H-[1,2,3]triazole-4-carbonyl]-amino}-piperidine-3-carboxylic acid ((1S*,2R*)-2-phenyl-cyclopropyl)-amide and (3R*,4R*)-1-Cyclopentyl-4-{[1-(2,4-difluoro-phenyl)-1H-[1,2,3]triazole-4-carbonyl]-amino}-piperidine-3-carboxylic acid ((1R*,2S*)-2-phenyl-cyclopropyl)-amide [Example 1.146]	904 nM
(3R*,4R*)-1-Cyclopentyl-4-{[3-(2,4-difluoro-phenyl)-isoxazole-5-carbonyl]-amino}-piperidine-3-carboxylic acid ((1S*,2R*)-2-phenyl-cyclopropyl)-amide and (3R*,4R*)-1-Cyclopentyl-4-{[3-(2,4-difluoro-phenyl)-isoxazole-5-carbonyl]-amino}-piperidine-3-carboxylic acid ((1R*,2S*)-2-phenyl-cyclopropyl)-amide [Example 1.148]	769 nM
(3R*,4R*)-1-Cyclopropylmethyl-4-{[3-(2,4-difluoro-phenyl)-isoxazole-5-carbonyl]-amino}-piperidine-3-carboxylic acid ((1S*,2R*)-2-phenyl-cyclopropyl)-amide and (3R*,4R*)-1-Cyclopropylmethyl-4-{[3-(2,4-difluoro-phenyl)-isoxazole-5-carbonyl]-amino}-piperidine-3-carboxylic acid ((1R*,2S*)-2-phenyl-cyclopropyl)-amide [Example 1.164]	267 nM
rac-(3R*,4R*)-1-Cyclohexyl-4-{[5-(2-difluoro-phenyl)-oxazole-2-carbonyl]-amino}-piperidine-3-carboxylic acid (1-pyridin-2-yl-cyclopropyl)-amide [Example 3.011]	22 nM
